From publication PMC9186412, “Rational Framework for the Design of Trp- and Arg-Rich Peptide Antibiotics Against Multidrug-Resistant Bacteria” (Frontiers in Microbiology, 2022)
Converted amounts (≈) assume the structure as drawn. Read-outs that look alike come from different tables or passages of the source.

Columns and labels:
MDR strain PA239 = assay: Propidium iodide incorporation by flow cytometry; format: cell-based, Pseudomonas aeruginosa; details: 2 μM, treated for 3 h
From the text: To examine whether the selected peptides kill their bacterial target mainly by membrane permeabilization, we used PI incorporation by the MDR strain PA239 (5 × 10^8 CFU/mL) quantitated by flow cytometry (Novocyte, United States) or visualized by video imaging using the digital microscope EVOS M7000 (Thermo Fisher Scientific, United States) in bright field or red fluorescence channel. In the flow cytometry experiments ([Di et al., 2020]), bacterial cells were either untreated or treated with different peptide E35 concentrations in MHB2 for 1 h at 37°C. We washed the bacteria-peptide mixture with PBS using an Eppendorf centrifuge at top speed for 7 min and incubated with PI in the dark for 15 min at room temperature. Tobramycin was used as a negative control with a 3-h long incubation. For video imaging, the broth medium was reduced to 20% in PBS (treated or untreated) to decrease the rate of cell division and PI incorporation assessed over time. Video images were recorded in real time using the 40× objective either in bright field or red fluorescence channel.

P. aeruginosa = assay: microbe, parasite or virus in culture; format: cell-based, Pseudomonas aeruginosa; details: Pseudomonas aeruginosa, MHB2, 18 h, 37°C
Description: Bacterial clinical isolates, used for initial screening and in previous studies ([Deslouches et al., 2013]; [Lin et al., 2018]), were anonymously provided by the clinical microbiology laboratory of the University of Pittsburgh medical Center. The panel used for secondary screening was from [CDC (2013)] (Supplementary Table 3), with resistance profiles data. Bacteria are stored in lock-secured –80°C freezer and typically retrieved by obtaining single colonies on agar plates prior for subsequent liquid broth cultures. Suspensions of test bacteria were prepared from log phase of growth by diluting overnight cultures at 1:100 with fresh cation-adjusted MHB (MHB2, Millipore Sigma, United States) and incubating for additional 3–4 h. Bacteria were spun at 3,000 × g for 10 min and the pellet resuspended in test condition media (Millipore Sigma, United States) to determine bacterial turbidity using a Den-1B densitometer (Grant Instruments, United States) at 0.5 McFarland (unit of bacterial density) corresponding to […].
To examine antibacterial activity, we used minor modifications of a standard growth inhibition assay endorsed by the Clinical and Laboratory Standards Institute (CLSI), as previously described ([Deslouches et al., 2013]). Bacteria were incubated with each of the indicated peptides in MHB2. The bacterial cells were kept in an incubator for 18 h at 37°C, which is linked to a robotic system that feeds a plate reader every hour with one of 8 × 96-well plates. This set-up allows the collection of growth kinetic data at A 570 (absorbance at 570 nm) to examine growth inhibition in real time (BioTek Instruments, United States). […] The assays are typically repeated a second time. If the MIC is different, a third experimental trial is performed to confirm the MIC. To assess bactericidal properties of the peptide, the assay was modified by using 15% fetal bovine serum (FBS, for a more physiologically relevant test condition) mixed with 25% MHB2 and 60% PBS. Bacterial cells (colony forming unit/mL or CFU/mL) were enumerated after incubating treated bacteria for 3 h and plating serially diluted samples on broth agar medium at 37°C overnight. Minimum bactericidal concentration (MBC) was determined as the peptide concentration at which complete bacterial killing was observed. […] Data were analyzed using GraphPad Prism software.

[1] = system: P. aeruginosa strain PA239; assay: Bactericidal assay (MBC) in FBS-containing medium FMP; format: cell-based; details: within 3h of incubation
Description: Bacteria were incubated with each of the indicated peptides in MHB2. […] To assess bactericidal properties of the peptide, the assay was modified by using 15% fetal bovine serum (FBS, for a more physiologically relevant test condition) mixed with 25% MHB2 and 60% PBS. […] Data were analyzed using GraphPad Prism software.

A. baumannii = assay: microbe, parasite or virus in culture; format: cell-based, Acinetobacter baumannii; details: Acinetobacter baumannii, 18 h, MHB2, 18 h, 37°C
Outline: (§1)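 Clinical isolates in log phase were exposed to peptides in cation-adjusted MHB for 18 h at 37 °C, with growth followed hourly at A570 to give the MIC by a modified CLSI method. For MBC, bacteria were treated 3 h in 15% FBS/25% MHB/60% PBS and then plated; MBC was the concentration giving complete killing.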

K. pneumoniae = assay: microbe, parasite or virus in culture; format: cell-based, Klebsiella pneumoniae; details: Klebsiella pneumoniae, 18 h, MHB2, 18 h, 37°C
Outline: as §1

CDC AR isolates = system: CDC AR isolates; design: key: S (green), susceptible; I (blue), intermediate; R (red), resistant; details: data provided by the CDC, ref CDC, cited from earlier work
From the text: Supplement Table_3.XLSX, sheet "CDC AR isolates profiles" | column: G(-) strains

E. coli = assay: microbe, parasite or virus in culture; format: cell-based, Escherichia coli; details: Escherichia coli, 18 h, MHB2, 18 h, 37°C
Outline: as §1

Enterobacter spp = assay: microbe, parasite or virus in culture; format: cell-based, Enterobacter spp (aerogenes, cloacae); details: Enterobacter, 18 h, UPMC, MHB2, 18 h, 37°C
Outline: as §1

In the case of `NC[C@H]1O[C@H](O[C@H]2[C@H](O)[C@@H](O[C@H]3O[C@H](CO)[C@@H](O)[C@H](N)[C@H]3O)[C@H](N)C[C@@H]2N)[C@H](N)C[C@@H]1O` [Tobramycin, reference compound], the PI incorporation (MDR strain PA239) is reported as 29%, the MIC (P. aeruginosa; 18 h, strain PA01) is reported as 1 µM (≈ 0.468 µg/mL) and the MIC (P. aeruginosa; 18 h, strain PA97-5, UPMC) is reported as > 16 µM. For the same molecule, the MIC (P. aeruginosa; 18 h, strain PA129-5, UPMC) was 16 µM (≈ 7.48 µg/mL), the MIC (P. aeruginosa; PA14, 18 h, strain PA14) was 0.5 µM (≈ 0.234 µg/mL) and the bacterial killing [1] was “did not display any substantial bacterial killing”. For the same molecule, the MIC (A. baumannii; strain AB-A2, UPMC clinical strain, A570, confirmed by 2nd or 3rd trial) was 0.5 µM (≈ 0.234 µg/mL), the MIC (A. baumannii; strain AB-A3, UPMC) was 16 µM (≈ 7.48 µg/mL) and the MIC (A. baumannii; strain AB-F8, UPMC) was > 16 µM. The MIC (A. baumannii; strain AB-F9, UPMC) was 2 µM (≈ 0.935 µg/mL), the MIC (K. pneumoniae; strain KPA5 (colistin-resistant), UPMC) was > 16 µM and the MIC (K. pneumoniae; strain KPB3, UPMC) was > 16 µM. The Antibiotic susceptibility profile (CDC AR isolates; Acinetobacter baumannii AB273, CDC AR isolate) was “R”, the Antibiotic susceptibility profile (CDC AR isolates; Acinetobacter baumannii AB274, CDC AR isolate) was “S” and the Antibiotic susceptibility profile (CDC AR isolates; Acinetobacter baumannii AB275, CDC AR isolate) was “R”. For the same molecule, the Antibiotic susceptibility profile (CDC AR isolates; Acinetobacter baumannii AB276, CDC AR isolate) was “R”, the Antibiotic susceptibility profile (CDC AR isolates; Enterobacter cloacae E62, CDC AR isolate) was “R” and the Antibiotic susceptibility profile (CDC AR isolates; Escherichia coli EC541, CDC AR isolate) was “R”. The Antibiotic susceptibility profile (CDC AR isolates; Escherichia coli EC543, CDC AR isolate) was “R”, the Antibiotic susceptibility profile (CDC AR isolates; Escherichia coli EC544, CDC AR isolate) was “R” and the Antibiotic susceptibility profile (CDC AR isolates; Escherichia coli EC549, CDC AR isolate) was “R”. For the same molecule, the Antibiotic susceptibility profile (CDC AR isolates; Klebsiella pneumoniae KP542, CDC AR isolate) was “R”, the Antibiotic susceptibility profile (CDC AR isolates; Klebsiella pneumoniae KP548, CDC AR isolate) was “S” and the Antibiotic susceptibility profile (CDC AR isolates; Klebsiella pneumoniae KP550, CDC AR isolate) was “R”. The Antibiotic susceptibility profile (CDC AR isolates; Klebsiella pneumoniae KP552, CDC AR isolate) was “R”, the Antibiotic susceptibility profile (CDC AR isolates; Pseudomonas aeruginosa PA229, CDC AR isolate) was “S” and the Antibiotic susceptibility profile (CDC AR isolates; Pseudomonas aeruginosa PA230, CDC AR isolate) was “R”. The Antibiotic susceptibility profile (CDC AR isolates; Pseudomonas aeruginosa PA231, CDC AR isolate) was “R”, the Antibiotic susceptibility profile (CDC AR isolates; Pseudomonas aeruginosa PA232, CDC AR isolate) was “R” and the Antibiotic susceptibility profile (CDC AR isolates; Pseudomonas aeruginosa PA239, CDC AR isolate) was “R”. For the same molecule, the MIC (E. coli; strain YDC337, UPMC) was > 16 µM, the MIC (E. coli; strain YDC748, UPMC) was 16 µM (≈ 7.48 µg/mL) and the MIC (Enterobacter spp; strain EA518 (aerogenes)) was > 16 µM. The MIC (Enterobacter spp; strain EA596 (aerogenes)) was > 16 µM, the MIC (Enterobacter spp; strain EC470 (cloacae)) was 4 µM (≈ 1.87 µg/mL) and the MIC (Enterobacter spp; strain EC560 (cloacae)) was > 16 µM.
